# Laboratory results as given in article PMC10057980, “Pharmacokinetics of Orally Applied Cannabinoids and Medical Marijuana Extracts in Mouse Nervous Tissue and Plasma: Relevance for Pain Treatment” (Pharmaceutics, 2023).
# Key:
# [1] = tested on: mechanical hypersensitivity in spared nerve injury (SNI) mice; test: Von Frey mechanical thresholds in the spared nerve injury (SNI) model; assay type: in vivo, C57BL/6J mice; conditions: day 7 after surgery, single oral dose: 20 mg/kg pure CBD or THC, 40 mg/kg THC+ extract, 1560 mg/kg THC- extract, CBD effect at 4 h, p = 0.022 vs vehicle
# Protocol: SNI surgery was performed as previously described. In short, mice were anesthetized by intraperitoneal (i.p.) injections of 10 mg/kg Xylazine (AniMedica GmbH—a LIVISTO company, Senden, Germany) and 100 mg/kg Ketamine (AniMedica GmbH—a LIVISTO company, Senden, Germany). The skin on the lateral surface of the thigh was incised and the sciatic nerve exposed by separating the biceps femoris muscle through incision of the connective tissue without wounding the muscle. The common peroneal and tibial nerves were ligated with 4-0 Vicryl (Sh-1 plus; Raritan, NJ, USA) and a portion of 3 mm length was excised around the ligation site. Care was taken to avoid any mechanical damage to the sural nerve. After dissection, the muscle and skin were sutured using 4-0 Vicryl. Mice were left to recover at 37 °C until they regained consciousness.
# The von Frey test was performed as previously described. In brief, mice were placed in a Plexiglas chamber on an elevated iron-mesh floor and allowed to habituate before testing. […] Withdrawal thresholds were calculated according to the up-and-down method. Von Frey results were analysed using repeated measure ANOVA.
# [2] = design: method as in PMID 21796370; conditions: CBD orally given to mice; cited from earlier work
# [3] = design: method as in PMID 12648025, PMID 17712819, PMID 30534073; conditions: cited from earlier work
# [4] = Cannabinoid and metabolite concentrations in plasma, brain and spinal cord after single oral gavage (LC-MS/MS, non-compartmental PK); conditions: mice
# [5] = high dose, oral gavage (40 mg/kg THC+ extract, 20 mg/kg pure THC), plasma, brain and spinal cord
SMILES,effect on mechanical withdrawal thresholds (von Frey) [1],brain–plasma ratio [2],time detectable in organs including the brain after application [3],"time of maximum CBD concentration ([4]; pure CBD compound, 1 and 20 mg/kg bodyweight, oral) [h]","absorption rate of CBD compared with THC, brain ([4]; pure compounds, oral, brain) [fold]","absorption rate of CBD compared with THC, spinal cord ([4]; pure compounds, oral, spinal cord) [fold]","time of peak concentration of OH-THC ([4]; high dose, oral (40 mg/kg THC+ extract, 20 mg/kg pure THC), brain tissue) [h]","time at which Δ9-THC was detectable in all tissues [4, 5] [h]","time of maximum Δ9-THC concentration [4, 5] [h]","Δ9-THC concentrations in all sample types ([4]; low dose, oral gavage (2 mg/kg THC+ extract, 1 mg/kg pure THC), plasma, brain and spinal cord)"
"C=C(C)[C@@H]1CCC(C)=C[C@H]1c1c(O)cc(CCCCC)cc1O [CBD, cannabidiol]",alleviated mechanical hypersensitivity,3.54,more than 24 h,2,2.8,1.7,–,–,–,–
"CCCCCc1cc(O)c2c(c1)OC(C)(C)[C@@H]1CCC(C)=C[C@@H]21 [pure THC, Δ9-Tetrahydrocannabinol]",did not affect mechanical withdrawal thresholds,–,more than 24 h,–,–,–,2,1,2,negligible concentrations
